IC50 data for 23 compounds are collected here from patent US11873298B2, “Compounds and uses thereof” (JANSSEN PHARMACEUTICA NV, priority 2017, dated 2024).

A value given as a limit tells only on which side of the number the result lay.

In one test the target is T1, SCD5 (Homo sapiens, UniProt Q86SK9).
T1 construct: host or cells: S. cerevisiae ole1Δ strain (W303 pdr1Δ pdr3Δ background), plasmid pRS316 with TDH3 promoter and CYC1 terminator
T1 sequence (Q86SK9 1-330): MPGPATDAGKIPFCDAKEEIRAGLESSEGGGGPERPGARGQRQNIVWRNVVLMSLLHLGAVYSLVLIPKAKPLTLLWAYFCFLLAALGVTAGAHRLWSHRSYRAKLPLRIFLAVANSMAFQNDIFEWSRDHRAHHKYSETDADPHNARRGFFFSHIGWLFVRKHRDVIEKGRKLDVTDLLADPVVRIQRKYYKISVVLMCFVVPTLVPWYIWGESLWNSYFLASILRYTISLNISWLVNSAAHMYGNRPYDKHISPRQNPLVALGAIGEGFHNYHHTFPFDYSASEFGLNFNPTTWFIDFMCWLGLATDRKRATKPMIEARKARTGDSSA
Nature of the test: Growth inhibition of humanized yeast strain expressing SCD5 as sole desaturase. It is filed as cell-based. In outline:
(§1)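 Plasmid-complemented ole1Δ yeast, drug-pump deleted (pdr1Δ pdr3Δ), depend solely on the introduced Ole1, SCD1 or SCD5 desaturase. Compounds are added from DMSO to cells in uracil-free galactose medium, 2× density 0.02, and OD600 is read after 24 h or 40 h respectively.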

Another test deals with T2, SCD1 (Homo sapiens, UniProt O00767).
T2 construct: host or cells: S. cerevisiae ole1Δ strain (W303 pdr1Δ pdr3Δ background), plasmid pRS316 with TDH3 promoter and CYC1 terminator
T2 sequence (O00767 1-359): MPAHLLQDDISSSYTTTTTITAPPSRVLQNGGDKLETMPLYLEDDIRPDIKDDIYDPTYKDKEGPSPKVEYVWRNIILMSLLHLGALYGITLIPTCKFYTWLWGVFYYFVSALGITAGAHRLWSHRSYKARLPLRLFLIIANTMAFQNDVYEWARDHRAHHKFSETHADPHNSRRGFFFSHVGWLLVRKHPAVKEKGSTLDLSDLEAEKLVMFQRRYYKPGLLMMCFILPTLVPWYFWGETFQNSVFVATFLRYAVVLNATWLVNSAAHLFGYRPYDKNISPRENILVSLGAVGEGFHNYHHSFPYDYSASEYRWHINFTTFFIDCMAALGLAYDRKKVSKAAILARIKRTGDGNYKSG
The test can be described thus: Growth inhibition of humanized yeast strain expressing SCD1 as sole desaturase. It is filed as cell-based. In outline: as §1

Where [1] appears, read: growth inhibition of humanized yeast strain expressing human SCD5.
Where [2] appears, read: growth inhibition of humanized yeast strain expressing human SCD1.
[3] abbreviates: humanized yeast strain expressing SCD5.
The mark [4] stands for this setting: humanized yeast strain expressing SCD1.

Take `CC(C)(C)OC(=O)N1CCC(c2noc(-c3ccc4ccn(C5COC5)c4c3)n2)CC1` [Compound 1039]: the IC50 against SCD5 (humanized yeast strain, 40 h) turned out to be 0.01 µM; against SCD1 (humanized yeast strain, 40 h), 15.7 µM.

As for `Cc1nn(C)c2cc(-c3noc(C4CCN(c5nc6ccccc6o5)CC4)n3)ccc12` [Compound 669], the 50% inhibitory concentration (IC50) at SCD5 (setting [1]) and against SCD1 (setting [2]) was greater than 45 µM in each case.

Turning to `CC(C)(C)OC(=O)N1CCC(c2noc(-c3cccc([C@H]4CCOC4)c3)n2)CC1` [Compound 789], the half-maximal inhibitory concentration (IC50) against SCD5 (humanized yeast strain, 40 h) is 0.01 µM; against SCD1 (humanized yeast strain, 40 h), greater than 45 µM.

As to `CC(C)n1ncc2ccc(-c3nnc(C4CCN(C(=O)CC5(C)CC5)CC4)[nH]3)cc21` [Compound 691], the half-maximal inhibitory concentration (IC50) on SCD5 (setting [1]) and at SCD1 (setting [2]) was greater than 45 µM each time.

For `CC(C)(C)OC(=O)N1CC(c2nc(-c3ccc4cn(C5COC5)nc4c3)no2)C1` [Compound 708], the 50% inhibitory concentration (IC50) against SCD5 (setting [1]) and against SCD1 (setting [2]) was greater than 45 µM in each case.

Take `CC(CCO)n1ncc2ccc(-c3noc(C4CCN(C(=O)OC(C)(C)C)CC4)n3)cc21` (stereo not shown) [Compound 641]: the half-maximal inhibitory concentration (IC50) against SCD5 (setting [1]) is 6.72 µM; against SCD1 (setting [2]), greater than 45 µM.

Take `CC(=O)N1CC(n2ncc3ccc(-c4nc(N5CCn6c(Cl)cnc6C5)no4)cc32)C1` [Compound 935]: the IC50 on SCD5 (humanized yeast strain, 40 h) is greater than 45 µM; at SCD1 (humanized yeast strain, 40 h), greater than 45 µM.

Consider `O=C(C1CCC1)N1CCC(c2cc(-c3cc4c(cn3)cnn4C3COC3)on2)CC1` [Compound 1109], for which the IC50 against SCD5 (humanized yeast strain, 40 h) was 0.05 µM; on SCD1 (humanized yeast strain, 40 h), greater than 45 µM.

With `COC(=O)N1CCC(c2noc(-c3ccc4cn(C5COC(C)(C)C5)nc4c3)n2)CC1` (stereo not shown) [Compound 1095], the 50% inhibitory concentration (IC50) on SCD5 (humanized yeast strain, 40 h) was 11.1 µM; on SCD1 (humanized yeast strain, 40 h), greater than 45 µM.

Consider `O=C(CC1CC1)N1CCC(c2noc(-c3ccc4cnn(C5COC5)c4c3)n2)CC1` [Compound 894], for which the half-inhibitory concentration (IC50) was 0.07 µM on SCD5 (humanized yeast strain, 40 h) and greater than 45 µM against SCD1 (humanized yeast strain, 40 h).

Consider `O=C(N1CCN(c2nnc(-c3ccc4cnn(C5COC5)c4c3)o2)CC1)C12CC(C1)C2` [Compound 994], for which the IC50 is greater than 45 µM against SCD5 (humanized yeast strain, 40 h) and greater than 45 µM on SCD1 (humanized yeast strain, 40 h).

`CC(C)n1ncc2ccc(N3CC4(CCN(C(=O)OC(C)(C)C)CC4)OC3=O)cc21` [Compound 515]: the 50% inhibitory concentration (IC50) is greater than 45 µM against SCD5 (setting [3]) and 16.5 µM on SCD1 (setting [4]).

Turning to `COC(=O)N1CCC(F)(c2nc(-c3ccc4cnn(C(C)C)c4c3)no2)CC1` [Compound 622], the IC50 is 1.61 µM against SCD5 (setting [1]) and greater than 45 µM against SCD1 (setting [2]).

For the compound `COC(=O)N1CCC(c2noc(-c3ccnc(N4CCOCC4)c3)n2)CC1` [Compound 1106], the IC50 on SCD5 (humanized yeast strain, 40 h) was 2.96 µM; at SCD1 (humanized yeast strain, 40 h) it was greater than 45 µM.

For `O=C(C1CC1)N1CCC(c2noc(-c3ccc4cnn(C5COC5)c4c3)n2)CC1` [Compound 887], the IC50 is 0.01 µM against SCD5 (humanized yeast strain, 40 h) and greater than 45 µM at SCD1 (humanized yeast strain, 40 h).

Turning to `CC(C)(C)OC(=O)N1CCC(c2nc(-c3cccc(C4CCCOC4)c3)no2)CC1` (stereo not shown) [Compound 824], the half-maximal inhibitory concentration (IC50) against SCD5 (humanized yeast strain, 40 h) is 0.932 µM; against SCD1 (humanized yeast strain, 40 h) it was greater than 45 µM.

On to `O=C(N1CCC(c2noc(-c3cc(F)c4cnn(C5COC5)c4c3)n2)CC1)C1(F)CC1` [Compound 1062], for which the IC50 is 0.01 µM against SCD5 (humanized yeast strain, 40 h) and 29 µM at SCD1 (humanized yeast strain, 40 h).

Turning to `CC(C)(C)OC(=O)N1CCC(c2noc(-c3ccnc(OC4COC4)c3)n2)CC1` [Compound 982], the 50% inhibitory concentration (IC50) against SCD5 (humanized yeast strain, 40 h) was 0.327 µM; on SCD1 (humanized yeast strain, 40 h), 0.01 µM.

Regarding `CCC(=O)N1CCN(c2nc(-c3ccc4cnn(C5CN(C(=O)CC)C5)c4c3)no2)CC1` [Compound 930], the IC50 is 0.2 µM against SCD5 (humanized yeast strain, 40 h) and greater than 45 µM at SCD1 (humanized yeast strain, 40 h).

For `Cc1nn(C)c2cc(-c3noc(C4CCN(C(=O)CNC(=O)OC(C)(C)C)CC4(F)F)n3)ccc12` (stereo not shown) [Compound 527], the figures for the IC50 on SCD5 (setting [3]) and against SCD1 (setting [4]) were 1.46 µM and 0.958 µM, respectively.

`CC(N1CCC(c2nc(-c3ccc4cnn(C5COC5)c4c3)no2)CC1)C(F)(F)F` (stereo not shown) [Compound 1091]: the half-maximal inhibitory concentration (IC50) on SCD5 (humanized yeast strain, 40 h) was 3.62 µM; at SCD1 (humanized yeast strain, 40 h), greater than 45 µM.

As for `Cc1nn(C)c2cc(-c3nc(C4CCN(C(=O)C(C)C)CC4)no3)ccc12` [Compound 938], the half-inhibitory concentration (IC50) on SCD5 (humanized yeast strain, 40 h) is greater than 45 µM; at SCD1 (humanized yeast strain, 40 h) it was greater than 45 µM.

`O=C(C1CC1)N1CCC(c2noc(-c3ccnc(Cl)c3)n2)CC1` [Compound 1123]: the IC50 is 6.64 µM against SCD5 (humanized yeast strain, 40 h) and greater than 45 µM on SCD1 (humanized yeast strain, 40 h).

In general, IC50 refers to the midpoint of a concentration-inhibition curve. Low values mean greater potency, high ones weaker potency.
